Test in all cases: relative cell number vs DMSO control (72 h) (% of DMSO); higher = less growth inhibition (more cells)
Details in all cases: sgRNA knockout: sgNT

One experiment relates to BT-20. Here is the method:
(§1)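 QMAP-Seq: a pool of 5 breast cancer cell lines (ZR-75-1, SKBR3, HCC-38, MDA-MB-231, BT-20), each carrying 12 doxycycline-inducible Cas9 sgRNA perturbations (11 knockouts plus non-targeting sgNT), was treated with compounds for 72 h at four 10-fold doses (10 nM-10 uM or 1 nM-1 uM range). Barcodes were amplified and sequenced, and cell number was interpolated from 293T spike-in standard curves. The result is expressed as % of the median of DMSO wells. Two biological replicates.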

A further experiment has as its system HCC-38. Here is the method: as §1
In another experiment the test system is MDA-MB-231. How it is done: as §1
For a further experiment, the system named is SKBR3. How it is done:
as §1

For another experiment, the system named is ZR-75-1. How it is done:
as §1

± gives the standard deviation of the averaged measurements.

Turning to `CC(C)C[C@@H](C=O)NC(=O)[C@H](CC(C)C)NC(=O)[C@H](CC(C)C)NC(=O)OCc1ccccc1` [MG132], the relative cell number with BT-20 (10 nM) was 102 ± 21; with BT-20 (100 nM), 113 ± 32; in the experiment with BT-20 (1000 nM), 35.4 ± 8.1; in the experiment on BT-20 (10000 nM), 12 ± 0.91; in the experiment with HCC-38 (10 nM), 92.8 ± 13; in the experiment on HCC-38 (100 nM) it was 95.7 ± 16. Also, the relative cell number was 5.97 ± 0.84 with HCC-38 (1000 nM); 8.104 ± 0.025 in the experiment on HCC-38 (10000 nM); 121 ± 1.8 with MDA-MB-231 (10 nM); 77.3 ± 41 with MDA-MB-231 (100 nM); 7.19 ± 1.8 with MDA-MB-231 (1000 nM); 7.81 ± 2.5 in the experiment on MDA-MB-231 (10000 nM). Besides, the relative cell number in the experiment on SKBR3 (10 nM) is 111 ± 7.2; with SKBR3 (100 nM), 99.3 ± 22; in the experiment with SKBR3 (1000 nM), 14 ± 1.8; with SKBR3 (10000 nM), 9.81 ± 0.2; with ZR-75-1 (10 nM), 80.8 ± 16; in the experiment with ZR-75-1 (100 nM), 97.1 ± 11. The relative cell number stood at 24.7 ± 3.3 with ZR-75-1 (1000 nM) and 6.78 ± 1.8 in the experiment on ZR-75-1 (10000 nM).
In the case of `O=C(O)CC[C@H]1CC[C@@](c2cc(F)ccc2F)(S(=O)(=O)c2ccc(Cl)cc2)CC1` [MK0752], the relative cell number in the experiment on BT-20 (10 nM) was 137 ± 39; in the experiment with BT-20 (100 nM), 112 ± 41; with BT-20 (1000 nM), 145 ± 3.2; in the experiment on BT-20 (10000 nM), 134 ± 1.4; in the experiment with HCC-38 (10 nM), 135 ± 24; in the experiment on HCC-38 (100 nM) it was 107 ± 2.6. The relative cell number stood at 112 ± 14 with HCC-38 (1000 nM); 115 ± 43 in the experiment on HCC-38 (10000 nM); 170 ± 61 with MDA-MB-231 (10 nM); 93.4 ± 20 in the experiment on MDA-MB-231 (100 nM); 124 ± 7.5 in the experiment with MDA-MB-231 (1000 nM); 94.4 ± 51 in the experiment with MDA-MB-231 (10000 nM). Also, the relative cell number in the experiment with SKBR3 (10 nM) was found to be 172 ± 42; in the experiment on SKBR3 (100 nM), 114 ± 19; in the experiment with SKBR3 (1000 nM), 107 ± 24; with SKBR3 (10000 nM), 111 ± 27; with ZR-75-1 (10 nM), 120 ± 36; with ZR-75-1 (100 nM) it was 88.2 ± 30. The relative cell number with ZR-75-1 (1000 nM) amounted to 107 ± 22; in the experiment on ZR-75-1 (10000 nM), 127 ± 28.
As to `C=CCn1c(=O)c2cnc(Nc3ccc(N4CCN(C)CC4)cc3)nc2n1-c1cccc(C(C)(C)O)n1` [MK1775], the relative cell number in the experiment with BT-20 (10 nM) turned out to be 95.2 ± 12; in the experiment with BT-20 (100 nM), 84.17 ± 0.44; in the experiment on BT-20 (1000 nM), 42.9 ± 2.7; in the experiment with BT-20 (10000 nM), 31.7 ± 1.8; with HCC-38 (10 nM) it was 97.2 ± 20; with HCC-38 (100 nM) it was 76.6 ± 6.7. Also, the relative cell number in the experiment on HCC-38 (1000 nM) came to 35.3 ± 2.2; in the experiment with HCC-38 (10000 nM) it was 29.548 ± 0.018; with MDA-MB-231 (10 nM) it was 81.5 ± 35; in the experiment with MDA-MB-231 (100 nM), 74 ± 8; in the experiment on MDA-MB-231 (1000 nM), 20.3 ± 8; in the experiment on MDA-MB-231 (10000 nM), 13.8 ± 6.6. In addition, the relative cell number amounted to 112 ± 1.2 in the experiment with SKBR3 (10 nM); 108 ± 18 with SKBR3 (100 nM); 29.8 ± 14 with SKBR3 (1000 nM); 14.7 ± 1.8 with SKBR3 (10000 nM); 138 ± 30 with ZR-75-1 (10 nM); 77.7 ± 43 with ZR-75-1 (100 nM). Moreover, the relative cell number in the experiment with ZR-75-1 (1000 nM) was 51.7 ± 24; in the experiment on ZR-75-1 (10000 nM) it was 15.6 ± 6.
With `CC(C)C[C@H](NC(=O)CNC(=O)c1cc(Cl)ccc1Cl)B(O)O` [MLN2238], the relative cell number with BT-20 (10 nM) was 85.1 ± 6.1; with BT-20 (100 nM) it was 91 ± 27; in the experiment on BT-20 (1000 nM) it was 40.2 ± 3.5; with BT-20 (10000 nM), 15 ± 6.4; in the experiment on HCC-38 (10 nM), 91.7 ± 16; with HCC-38 (100 nM), 50.2 ± 2.5. The relative cell number in the experiment with HCC-38 (1000 nM) was 5.9 ± 0.86; with HCC-38 (10000 nM), 4.82 ± 1.7; with MDA-MB-231 (10 nM) it was 94.1 ± 17; in the experiment with MDA-MB-231 (100 nM), 65.3 ± 5; in the experiment with MDA-MB-231 (1000 nM) it was 8.44 ± 0.14; in the experiment on MDA-MB-231 (10000 nM), 4.72 ± 0.16. For the same compound, the relative cell number in the experiment with SKBR3 (10 nM) came out at 87.5 ± 27; with SKBR3 (100 nM) it was 54.1 ± 9.5; with SKBR3 (1000 nM), 9.25 ± 0.68; in the experiment with SKBR3 (10000 nM), 2.47 ± 0.24; in the experiment with ZR-75-1 (10 nM), 93.7 ± 33; in the experiment with ZR-75-1 (100 nM), 81.4 ± 28. The relative cell number was found to be 17.8 ± 7.5 in the experiment with ZR-75-1 (1000 nM) and 10.9 ± 8 in the experiment with ZR-75-1 (10000 nM).
With `Cc1ccc(NC(=O)c2ccc(CN3CCN(C)CC3)cc2)cc1Nc1nc(-c2cccnc2)cs1` [Masitinib], the relative cell number was determined as 92.1 ± 2.6 in the experiment with BT-20 (10 nM); 80.9 ± 25 with BT-20 (100 nM); 95.2 ± 38 with BT-20 (1000 nM); 70.8 ± 23 in the experiment with BT-20 (10000 nM); 106 ± 6.1 in the experiment with HCC-38 (10 nM); 78.71 ± 0.36 in the experiment on HCC-38 (100 nM). The relative cell number was determined as 76.6 ± 17 in the experiment with HCC-38 (1000 nM); 97.6 ± 2.4 with HCC-38 (10000 nM); 91 ± 41 in the experiment with MDA-MB-231 (10 nM); 74.9 ± 12 in the experiment with MDA-MB-231 (100 nM); 64.2 ± 30 with MDA-MB-231 (1000 nM); 50.7 ± 4.3 in the experiment on MDA-MB-231 (10000 nM). In addition, the relative cell number in the experiment with SKBR3 (10 nM) was 78.7 ± 58; in the experiment with SKBR3 (100 nM), 99.4 ± 23; with SKBR3 (1000 nM), 67.4 ± 6.4; in the experiment with SKBR3 (10000 nM) it was 66.6 ± 0.77; with ZR-75-1 (10 nM), 70.6 ± 28; in the experiment with ZR-75-1 (100 nM), 76.2 ± 9.5. For the same compound, the relative cell number is 94.7 ± 34 in the experiment on ZR-75-1 (1000 nM) and 34.2 ± 1.2 in the experiment with ZR-75-1 (10000 nM).

The record behind these values is the supplement of paper PMC7661543.
